Data: article PMC12527922, “Cocaine chemogenetics blunts drug-seeking by synthetic physiology” (Nature, 2025)
Values joined by “and” are separate entries in the source; they are usually repeats but may differ in a detail not shown here. Identical values can stand only once.

Test system: GRABDA dopamine sensor, nucleus accumbens shell
Test: Fibre photometry of dopamine (GRABDA) after cocaine administration
Assay type: in vivo, rat
Design: GRABDA dopamine response per dose (sheet 4i), individual rats / GRABDA dopamine response per dose (sheet 4i), Mean: unit not given here
Conditions: for GRABDA dopamine signal, Mean / GRABDA dopamine signal, individual rats: Cocaine 5 mg/kg; for GRABDA dopamine signal, AVG: ED Fig. 9a, Cocaine 10 mg/kg
Procedure: Male Sprague–Dawley rats were anaesthetized with isoflurane (1.5–2%) and then placed onto a stereotaxic frame (Kopf) and injected with AAV5-Syn::coca-5HT3-IRES-mCherry (0.5 µl, 4.95 × 10^12 vg per ml) into the LHb (AP, −3.8 mm relative to bregma; ML, ±0.7 mm; DV, −5.25 mm, at a 10° angle) (n = 5) or underwent sham surgery (n = 6). Rats were also implanted with an optic fibre (400 µm core, 0.50 NA) attached to a 2.5 mm diameter ferrule (Thorlabs) directed to the medial shell of the nucleus accumbens (AP, +1.7 mm relative to bregma; ML, ±0.9 mm; DV, −7.0 mm). To ensure that AAV9-Syn::GRABDA1m was transduced at the direct vicinity of the fibre tip, we coated the fibre with the AAV (0.4 µl, 5 × 10^12 vg per ml) using a silk fibroin film before its implantation as previously described.
For fibre photometry, dopamine (GRABDA) dynamics were measured using a Tucker-Davis Technologies (TDT) system in anaesthetized rats. […] Data were acquired at 1 kHz. On the testing day, rats were anaesthetized (isoflurane: induction, 5%; maintenance, 3%) and attached to a photometry patch cord (400 μm core, 0.50 NA). GRABDA signals were then collected for 5 min, followed by a saline i.p. injection, and additional GRABDA signal measurement for 20 min. Cocaine was then injected i.p. at 20, 10 or 5 mg per kg, and the GRABDA signal was measured for an additional 20 min. Each rat was tested three times with cocaine doses administered in randomized order. Fibre photometry analyses were performed using scripts in MATLAB R2023b (MathWorks) based on codes from the Barker (https://github.com/djamesbarker)[64] and Lerner (https://github.com/talialerner/)[65] laboratories. […] The GRABDA signal was normalized to values at 1 min before saline or cocaine injection and shown as the average z-scored activity per min. […] Fibre photometry data are represented as mean ± s.e.m. Statistical analyses were performed using Prism 10 (GraphPad).

## COC(=O)[C@H]1[C@@H](OC(=O)c2ccccc2)C[C@@H]2CC[C@H]1N2C [cocaine]
Coca-5HT3 rats, Dose 5 mg/kg
  GRABDA dopamine response per dose (sheet 4i), Mean: -63058.3
  GRABDA dopamine response per dose (sheet 4i), individual rats: -172031 and 384223 and 532188 and -477527 and -582145
Coca-5HT3 rats, Dose 10 mg/kg
  GRABDA dopamine response per dose (sheet 4i), Mean: 347550
  GRABDA dopamine response per dose (sheet 4i), individual rats: 537591 and 787483 and 404806 and 428321 and -420452
Coca-5HT3 rats, Dose 20 mg/kg
  GRABDA dopamine response per dose (sheet 4i), Mean: 29421.8
  GRABDA dopamine response per dose (sheet 4i), individual rats: -332785 and -760751 and 326619 and 420379 and 493647
Time 0, sheet 4g, 6 rats
  GRABDA dopamine signal, Mean: 0
Time 0, sheet 4h, 5 rats
  GRABDA dopamine signal, Mean: 0.3508
Time 1, sheet 4g, 6 rats
  GRABDA dopamine signal, Mean: 0.02583
Time 1, sheet 4h, 5 rats
  GRABDA dopamine signal, Mean: 0.1222
Time 2, sheet 4g, 6 rats
  GRABDA dopamine signal, Mean: 0.2299
Time 2, sheet 4h, 5 rats
  GRABDA dopamine signal, Mean: 0.04413
Time 3, sheet 4g, 6 rats
  GRABDA dopamine signal, Mean: 0.7586
Time 3, sheet 4h, 5 rats
  GRABDA dopamine signal, Mean: 0.02999
Time 4, sheet 4g
  GRABDA dopamine signal, individual rats: 0.7973 and 0.9252 and 2.611 and 0.5744 and 0.4159 and 0.8485
Time 4, sheet 4g, 6 rats
  GRABDA dopamine signal, Mean: 1.0287
Time 4, sheet 4h, 5 rats
  GRABDA dopamine signal, Mean: -0.002503
Time 5, sheet 4g
  GRABDA dopamine signal, individual rats: 1.23 and 1.254 and 3.178 and 1.255 and 0.28 and 0.3357
Time 5, sheet 4g, 6 rats
  GRABDA dopamine signal, Mean: 1.255
Time 5, sheet 4h, 5 rats
  GRABDA dopamine signal, Mean: 0.4003
Time 6, sheet 4g
  GRABDA dopamine signal, individual rats: 1.399 and 1.386 and 3.378 and 1.497 and 0.2966 and 0.5676
Time 6, sheet 4g, 6 rats
  GRABDA dopamine signal, Mean: 1.4208
Time 6, sheet 4h, 5 rats
  GRABDA dopamine signal, Mean: 0.7136
Time 7, sheet 4g
  GRABDA dopamine signal, individual rats: 1.395 and 1.753 and 3.423 and 2.3 and 0.321 and 1.639
Time 7, sheet 4g, 6 rats
  GRABDA dopamine signal, Mean: 1.805
Time 7, sheet 4h, 5 rats
  GRABDA dopamine signal, Mean: 0.8408
Time 8, sheet 4g
  GRABDA dopamine signal, individual rats: 1.672 and 1.969 and 3.288 and 2.2806 and 0.5769 and 1.2461
Time 8, sheet 4g, 6 rats
  GRABDA dopamine signal, Mean: 1.839
Time 8, sheet 4h, 5 rats
  GRABDA dopamine signal, Mean: 0.8223
Time 9, sheet 4g
  GRABDA dopamine signal, individual rats: 1.777 and 2.101 and 2.8254 and 2.6993 and 0.4303 and 1.7436
Time 9, sheet 4g, 6 rats
  GRABDA dopamine signal, Mean: 1.93
Time 9, sheet 4h, 5 rats
  GRABDA dopamine signal, Mean: 0.8303
Time 10, sheet 4g
  GRABDA dopamine signal, individual rats: 1.667 and 2.313 and 2.507 and 2.586 and 1.167 and 0.977
Time 10, sheet 4g, 6 rats
  GRABDA dopamine signal, Mean: 1.869
Time 10, sheet 4h, 5 rats
  GRABDA dopamine signal, Mean: 0.9165
Time 11, sheet 4g
  GRABDA dopamine signal, individual rats: 1.6386 and 2.495 and 2.468 and 3.874 and 0.606 and 2.597
Time 11, sheet 4g, 6 rats
  GRABDA dopamine signal, Mean: 2.28
Time 11, sheet 4h, 5 rats
  GRABDA dopamine signal, Mean: 0.6597
Time 12, sheet 4g
  GRABDA dopamine signal, individual rats: 1.957 and 2.546 and 2.0788 and 2.652 and 0.8197 and 2.605
Time 12, sheet 4g, 6 rats
  GRABDA dopamine signal, Mean: 2.11
Time 12, sheet 4h, 5 rats
  GRABDA dopamine signal, Mean: 0.5883
Time 13, sheet 4g
  GRABDA dopamine signal, individual rats: 1.603 and 2.238 and 1.918 and 2.979 and 1.082 and 2.101
Time 13, sheet 4g, 6 rats
  GRABDA dopamine signal, Mean: 1.987
Time 13, sheet 4h, 5 rats
  GRABDA dopamine signal, Mean: 0.5593
Time 14, sheet 4g
  GRABDA dopamine signal, individual rats: 1.849 and 2.2953 and 1.648 and 2.627 and 1.351 and 2.787
Time 14, sheet 4g, 6 rats
  GRABDA dopamine signal, Mean: 2.093
Time 14, sheet 4h, 5 rats
  GRABDA dopamine signal, Mean: 0.3765
Time 15, sheet 4g
  GRABDA dopamine signal, individual rats: 1.345 and 2.273 and 1.221 and 3.749 and 1.032 and 2.415
Time 15, sheet 4g, 6 rats
  GRABDA dopamine signal, Mean: 2.006
Time 15, sheet 4h, 5 rats
  GRABDA dopamine signal, Mean: 0.2825
Time 16, sheet 4g
  GRABDA dopamine signal, individual rats: 1.5856 and 2.161 and 1.005 and 2.897 and 1.378 and 2.623
Time 16, sheet 4g, 6 rats
  GRABDA dopamine signal, Mean: 1.942
Time 16, sheet 4h, 5 rats
  GRABDA dopamine signal, Mean: 0.2717
Time 17, sheet 4g
  GRABDA dopamine signal, individual rats: 1.282 and 2.066 and 0.8019 and 2.5132 and 1.107 and 1.846
Time 17, sheet 4g, 6 rats
  GRABDA dopamine signal, Mean: 1.6029
Time 17, sheet 4h, 5 rats
  GRABDA dopamine signal, Mean: 0.2019
Time 18, sheet 4g
  GRABDA dopamine signal, individual rats: 1.176 and 1.956 (2×) and 0.485 and 2.977 and 1.512
Time 18, sheet 4g, 6 rats
  GRABDA dopamine signal, Mean: 1.677
Time 18, sheet 4h, 5 rats
  GRABDA dopamine signal, Mean: 0.2838
Time 19, sheet 4g
  GRABDA dopamine signal, individual rats: 1.43 and 1.847 and 0.2727 and 2.8958 and 1.19 and 1.677
Time 19, sheet 4g, 6 rats
  GRABDA dopamine signal, Mean: 1.552
Time 19, sheet 4h, 5 rats
  GRABDA dopamine signal, Mean: 0.4407
Time -1, sheet 4g
  GRABDA dopamine signal, individual rats: 0.1891 and 0.00306 and 0.03687 and -0.1715
Time -1, sheet 4g, 6 rats
  GRABDA dopamine signal, Mean: 0.08979
Time -1, sheet 4h, 5 rats
  GRABDA dopamine signal, Mean: -0.1218
Control rats, Dose 5 mg/kg
  GRABDA dopamine response per dose (sheet 4i), Mean: 575620
  GRABDA dopamine response per dose (sheet 4i), individual rats: 1106356 and 625102 and 499430 and 534300 and 481000 and 207530
Control rats, Dose 10 mg/kg
  GRABDA dopamine response per dose (sheet 4i), Mean: 513482
  GRABDA dopamine response per dose (sheet 4i), individual rats: 1063773 and 869765 and 258346 and 365520 and 172520 and 350970
Control rats, Dose 20 mg/kg
  GRABDA dopamine response per dose (sheet 4i), Mean: 564660
  GRABDA dopamine response per dose (sheet 4i), individual rats: 543312 and 940737 and 382973 and 597550 and 499710 and 423680
Time 0
  GRABDA dopamine signal, AVG: 0.01595
Time 1
  GRABDA dopamine signal, AVG: 0.04899
Time 2
  GRABDA dopamine signal, AVG: 0.1402
Time 3
  GRABDA dopamine signal, AVG: 0.549
Time 4
  GRABDA dopamine signal, AVG: 0.7571
